Assay results from article PMC3691235, “Discovery of a Novel Dual Fungal CYP51/Human 5-Lipoxygenase Inhibitor: Implications for Anti-Fungal Therapy” (PLoS ONE, 2013).
Read-outs that look alike come from different tables or passages of the source. Values belong to the molecule of their own block, whether it stands above or below them.

Tests used:
[1] = biological target: T1, human COX-2 (Homo sapiens, UniProt P35354); assay: Cyclooxygenase assay (oxygen electrode), COX-2; assay type: biochemical; settings: 100 µM AA, pH 8.0, 37°C, oxygen consumption
T1 construct: purchased Cayman chemical 60122
T1 sequence (P35354 18-604): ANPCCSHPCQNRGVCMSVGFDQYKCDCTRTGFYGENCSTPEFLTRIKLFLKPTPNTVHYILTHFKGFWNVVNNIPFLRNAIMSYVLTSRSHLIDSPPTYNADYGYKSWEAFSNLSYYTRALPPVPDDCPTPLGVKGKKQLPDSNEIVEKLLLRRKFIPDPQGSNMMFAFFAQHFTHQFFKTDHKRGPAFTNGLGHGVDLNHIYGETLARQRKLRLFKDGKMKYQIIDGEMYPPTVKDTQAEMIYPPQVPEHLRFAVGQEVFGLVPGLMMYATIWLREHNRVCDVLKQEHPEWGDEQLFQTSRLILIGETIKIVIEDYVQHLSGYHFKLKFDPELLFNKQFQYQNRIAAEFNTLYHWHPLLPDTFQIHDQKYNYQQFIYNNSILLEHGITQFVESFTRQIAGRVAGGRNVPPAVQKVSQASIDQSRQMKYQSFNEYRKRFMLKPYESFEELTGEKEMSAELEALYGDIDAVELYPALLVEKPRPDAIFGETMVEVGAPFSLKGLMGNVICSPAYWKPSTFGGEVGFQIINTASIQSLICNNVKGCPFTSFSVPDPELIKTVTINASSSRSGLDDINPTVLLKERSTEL
Method: Ovine COX-1 (Cat. No. 60100) and human COX-2 (Cat. No. 60122) were purchased from Cayman chemical. Approximately 2 µg of either COX-1 or COX-2 were added to buffer containing 100 µM AA, 0.1 M Tris-HCl buffer (pH 8.0), 5 mM EDTA, 2 mM phenol and 1 µM hematin at 37°C. Data was collected using a Hansatech DW1 oxygen electrode chamber, as described before. Inhibitor or vehicle were mixed with the respective COX in buffer within the electrode cell, the reaction was initiated by the addition of AA, followed by monitoring of rate of oxygen consumption. Ibuprofen, aspirin and indomethacin, and the carrier solvent, DMSO, were used as positive and negative controls, respectively.

[2] = biological target: T2, C. albicans CYP51 (CaCYP51) (Candida albicans, UniProt P10613); assay: biochemical; assay type: binding
T2 construct: made in house; host or cells: E. coli
T2 sequence (P10613 whole entry): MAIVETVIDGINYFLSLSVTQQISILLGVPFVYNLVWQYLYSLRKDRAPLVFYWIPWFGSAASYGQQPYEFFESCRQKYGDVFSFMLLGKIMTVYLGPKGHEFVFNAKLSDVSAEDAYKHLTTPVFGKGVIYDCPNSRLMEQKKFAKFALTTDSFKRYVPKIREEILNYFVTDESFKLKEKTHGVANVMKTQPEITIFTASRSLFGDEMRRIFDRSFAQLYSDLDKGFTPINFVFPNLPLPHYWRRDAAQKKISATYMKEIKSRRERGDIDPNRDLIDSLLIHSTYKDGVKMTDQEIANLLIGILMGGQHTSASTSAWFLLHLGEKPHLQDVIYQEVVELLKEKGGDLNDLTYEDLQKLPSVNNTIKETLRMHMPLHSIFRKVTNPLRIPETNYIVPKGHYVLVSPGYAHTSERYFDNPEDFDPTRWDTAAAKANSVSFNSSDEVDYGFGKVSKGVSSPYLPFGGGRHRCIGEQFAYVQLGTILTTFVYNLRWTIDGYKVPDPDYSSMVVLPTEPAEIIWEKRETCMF
Method: (§1) Native cytochrome P450 concentrations were determined by reduced carbon monoxide difference spectra, based on an extinction coefficient of 91 mM^−1 cm^−1 [42], [43]. Binding of azole antifungal agents to 5 µM CaCYP51 and 5 µM HsCYP51 were performed as previously described, [44], using 0.25 and 0.5 mg mL^−1 stock solutions of ketoconazole and ketaminazole in DMSO. Azole antifungal agents were progressively titrated against the CYP51 protein in 0.1 M Tris-HCl (pH 8.1) and 25% (wt/vol) glycerol, with the spectral difference determined after each incremental addition of azole. The dissociation constant (Kd) of the enzyme-azole complex was determined by nonlinear regression (Levenberg-Marquardt algorithm) of ΔA peak-trough against azole concentration using a rearrangement of the Morrison equation [45] and fitted by the computer program ProFit 6.1.12 (QuantumSoft, Zurich, Switzerland).

[3] = biological target: T3, Homo sapiens CYP51 (HsCYP51) (Homo sapiens, UniProt Q16850); assay: Azole binding to HsCYP51 (type II difference spectra titration); settings: for Kd: 5 µM HsCYP51, Morrison equation
T3 construct: made in house; host or cells: E. coli
T3 sequence (Q16850 1-509): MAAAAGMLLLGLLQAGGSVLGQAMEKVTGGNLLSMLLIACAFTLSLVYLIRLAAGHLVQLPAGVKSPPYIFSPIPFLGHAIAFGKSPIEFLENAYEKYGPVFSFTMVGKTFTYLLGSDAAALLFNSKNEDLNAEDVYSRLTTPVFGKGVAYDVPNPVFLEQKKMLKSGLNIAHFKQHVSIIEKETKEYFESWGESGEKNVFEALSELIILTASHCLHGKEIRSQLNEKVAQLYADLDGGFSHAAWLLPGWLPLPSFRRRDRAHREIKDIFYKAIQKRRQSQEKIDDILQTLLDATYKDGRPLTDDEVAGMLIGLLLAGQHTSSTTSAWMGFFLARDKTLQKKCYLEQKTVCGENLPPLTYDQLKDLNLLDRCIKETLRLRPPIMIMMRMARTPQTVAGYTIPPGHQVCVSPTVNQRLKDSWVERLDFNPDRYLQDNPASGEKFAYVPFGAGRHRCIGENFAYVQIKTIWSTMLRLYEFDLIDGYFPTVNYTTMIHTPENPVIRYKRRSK
Method: as §1

[4] = biological target: T4, CaCYP51 (Candida albicans, UniProt P10613); assay: CYP51 reconstitution assay, CaCYP51; assay type: biochemical
T4 construct: made in house; host or cells: E. coli
T4 sequence (P10613 whole entry): as the sequence (P10613 whole entry) above
Method: (§2) Azole antifungal agents were added in 5 µL DMSO followed by incubation for 5 minutes at 37°C prior to assay initiation with 4 mM β-NADPHNa4, with shaking for a further 10 minutes at 37°C. Sterol metabolites were recovered by extraction with ethyl acetate followed by derivatization with N,O-bis(trimethylsilyl)trifluoroacetamide and […] prior to analysis by gas chromatography mass spectrometry.

[5] = biological target: T5, HsCYP51 (Homo sapiens, UniProt Q16850); assay: CYP51 reconstitution assay, HsCYP51; assay type: biochemical; settings: for IC50: 0.3 µM HsCYP51, 50 µM lanosterol
T5 construct: made in house; host or cells: E. coli
T5 sequence (Q16850 1-509): T3 sequence (Q16850 1-509)
Method: as §2

[6] = biological target: T6, Human leukocyte 5-lipoxygenase (Homo sapiens, UniProt P09917); settings: [13], cited from earlier work
T6 construct: made in house
T6 sequence (P09917 1-674): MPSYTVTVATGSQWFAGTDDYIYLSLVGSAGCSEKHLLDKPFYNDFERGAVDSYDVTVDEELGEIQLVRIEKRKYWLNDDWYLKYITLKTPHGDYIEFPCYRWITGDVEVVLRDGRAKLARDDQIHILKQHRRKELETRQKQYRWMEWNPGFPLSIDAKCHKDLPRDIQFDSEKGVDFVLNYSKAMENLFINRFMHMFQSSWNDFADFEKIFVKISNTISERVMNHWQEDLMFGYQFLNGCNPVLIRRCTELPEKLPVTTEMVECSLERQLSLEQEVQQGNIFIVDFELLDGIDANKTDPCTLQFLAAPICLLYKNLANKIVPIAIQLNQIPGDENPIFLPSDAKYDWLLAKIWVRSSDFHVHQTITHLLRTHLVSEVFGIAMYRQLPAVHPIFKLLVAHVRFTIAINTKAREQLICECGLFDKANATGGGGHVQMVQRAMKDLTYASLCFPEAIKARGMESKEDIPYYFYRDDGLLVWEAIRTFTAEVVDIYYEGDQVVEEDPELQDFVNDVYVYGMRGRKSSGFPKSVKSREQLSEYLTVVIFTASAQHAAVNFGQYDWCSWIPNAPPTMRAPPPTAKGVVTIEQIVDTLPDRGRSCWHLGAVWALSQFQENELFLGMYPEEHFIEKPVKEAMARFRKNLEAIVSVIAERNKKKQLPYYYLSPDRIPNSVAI

IC50 [1]: > 150000 nM
SMILES: CC(=O)N1CCN(c2ccc(NCc3ccc(-c4cccc(Cl)c4)o3)cc2)CC1 [Compound 13]

IC50 [1]: > 150000 nM
SMILES: Cc1cc(C2CCCCC2)n(O)c(=O)c1 [ciclopirox, reference compound]

Kd ([2]; 5 µM CaCYP51, Morrison equation, read-out: Kd with CaCYP51): 43 ± 5 nM
IC50 ([2]; in vitro): 43 nM
Kd [3]: 731 ± 69 nM
selectivity for yeast CYP51 relative to human CYP51 ([3]; yeast vs human CYP51): 17 fold
IC50 [1]: > 150000 nM
IC50 ([4]; 1 µM CaCYP51, 50 µM lanosterol, read-out: CaCYP51 IC50): ~900 nM
CYP51 activity retained ([4]; CaCYP51, at 4 µM compound): ~15%
IC50 [5]: ~16000 nM
remaining activity at 155 µM ([5]; HsCYP51, at 155 µM compound): ~30%
fold higher IC50 over ketoconazole with HsCYP51 ([5]; ratio of IC50 values): 3 fold
SMILES: CC(=O)N1CCN(c2ccc(NCC3COC(Cn4ccnc4)(c4ccc(Cl)cc4Cl)O3)cc2)CC1 (centres unmarked) [ketaminazole (16), ketaminazole]

Second part, the molecule before the results:

SMILES: CC(C)(C)OC(=O)N1CCN(c2ccc(NCc3ccc(-c4ccc(C#N)cc4)o3)cc2)CC1 [Compound 1]
IC50 [1]: > 150000 nM

SMILES: CC(=O)N1CCN(c2ccc(OCC3COC(Cn4ccnc4)(c4ccc(Cl)cc4Cl)O3)cc2)CC1 (centres unmarked) [ketoconazole, reference compound]
IC50 ([6]; read-out: 5-LOX IC50, ref [12]): > 50000 nM
Kd [2]: 27 ± 5 nM
fold difference in binding to CaCYP51 compared to ketaminazole (16) ([2]; ratio of Kd values): 1.6 fold
Kd [3]: 42 ± 16 nM
fold tighter binding to HsCYP51 compared to ketaminazole (16) ([3]; ratio of Kd values): 17 fold
IC50 [1]: > 150000 nM
IC50 [4]: ~500 nM
IC50 [5]: ~5000 nM
HsCYP51 activity, in words ([5]; at 95 µM compound): inactivated

SMILES: CC[C@](O)(c1nnc(NCc2ccc3c(-c4ccc(F)cc4)cc(=O)oc3c2)o1)C(F)(F)F [setileuton, reference compound]
IC50 ([6]; ref [2], read-out: 5-LOX IC50, literature value): 45 ± 10 nM
